This is an account of results in patent publication US9856216B2, “Compounds as TNIK, IKKε and TBK1 inhibitors and pharmaceutical composition comprising same” (GREEN CROSS CORPORATION, priority 2015, dated 2018).

The assay concerns the target T1, TNIK (Homo sapiens, UniProt Q9UKE5).
T1 construct: purchased Promega V4158
In words: ADP-Glo Kinase Assay, inhibition activity on TNIK. Type of assay: biochemical. As to conditions: for IC50: read-out: TNIK. How it is done: The inhibition activities on TNIK, IKKε and TBK1 were measured by a luminometer, TNIK/IKKε/TBK1 Kinase Enzyme System (Promega, Ca# V4158; Invitrogen, PR8031B, Promega, Ca# V3991) and ADP-Glo Kinase Assay using ADP-Glo™ Kinase Analysis Kit (Promega, Ca# V9101) and a kinase reaction buffer [40 mM Tris(pH 7.5), 20 mM MgCl2, 0.1 mg/mL BSA] in accordance with the manufacturer's protocol.
For orientation: ADP-Glo turns the ADP formed in a reaction into a luminescent signal.

T1 sequence (Q9UKE5 1-367 limits assumed): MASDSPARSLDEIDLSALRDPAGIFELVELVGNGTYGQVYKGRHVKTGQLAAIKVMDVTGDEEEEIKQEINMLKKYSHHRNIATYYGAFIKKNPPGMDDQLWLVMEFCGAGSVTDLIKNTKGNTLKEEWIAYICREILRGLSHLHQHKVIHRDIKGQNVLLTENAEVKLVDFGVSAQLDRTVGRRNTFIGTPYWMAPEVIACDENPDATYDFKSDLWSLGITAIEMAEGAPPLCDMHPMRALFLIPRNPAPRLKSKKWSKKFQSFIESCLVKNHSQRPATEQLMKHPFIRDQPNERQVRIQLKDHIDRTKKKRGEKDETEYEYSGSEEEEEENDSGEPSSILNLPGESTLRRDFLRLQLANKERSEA

As for `O=C(Nc1ccc(Sc2ccccc2)c2c1C(=O)NC2)c1ccccc1` [Example 407, N-(3-oxo-7-(phenylthio)isoindolin-4-yl)benzamide], the IC50 amounted to 2.3 µM.
Same read-out and setting: the same measure for `O=C(Nc1ccc(Nc2ccccc2)c2c1C(=O)NC2)c1ccc(F)cc1` [Example 408, 4-Fluoro-N-(3-oxo-7-(phenylamino)isoindolin-4-yl)benzamide]: 0.28 µM; for `O=C(Nc1ccc(Nc2ccccc2)c2c1C(=O)NC2)c1ccccc1` [Example 409, N-(3-oxo-7-(phenylamino)isoindolin-4-yl)benzamide]: 0.32 µM; for `COc1ccccc1Nc1ccc(NC(=O)c2ccccc2)c2c1CNC2=O` [Example 410, N-(7-((2-methoxyphenyl)amino)-3-oxoisoindolin-4-yl) benzamide]: 0.45 µM.
`Cc1ccccc1Nc1ccc(NC(=O)c2ccccc2)c2c1CNC2=O` [Example 411, N-(3-oxo-7-(o-tolylamino)isoindolin-4-yl)benzamide]: the IC50 is over 20 µM.
On the same count and under the same terms, next, `Cc1ccc(Nc2ccc(NC(=O)c3ccccc3)c3c2CNC3=O)cc1` [Example 412, N-(3-oxo-7-(p-tolylamino)isoindolin-4-yl)benzamide]: 4.1 µM.
Still for that read-out and setting: the same measure for `O=C(Nc1ccc(Nc2ccccc2F)c2c1C(=O)NC2)c1ccccc1` [Example 413, N-(7-((2-fluorophenyl)amino)-3-oxoisoindolin-4-yl)benzamide]: 0.5 µM; for `O=C(Nc1ccc(Nc2ccc(F)cc2)c2c1C(=O)NC2)c1ccccc1` [Example 414, N-(7-((4-fluorophenyl)amino)-3-oxoisoindolin-4-yl)benzamide]: 0.55 µM.
In the case of `O=C(Nc1ccc(Nc2cccc(F)c2)c2c1C(=O)NC2)c1ccccc1` [Example 415, N-(7-((3-fluorophenyl)amino)-3-oxoisoindolin-4-yl)benzamide], the IC50 is 1.7 µM.
Same read-out and setting: the same measure for `COc1ccc(Nc2ccc(NC(=O)c3ccccc3)c3c2CNC3=O)cc1` [Example 416, N-(7-((4-methoxyphenyl)amino)-3-oxoisoindolin-4-yl) benzamide]: 3.7 µM; for `Cc1ccc(C(=O)Nc2ccc(Nc3ccccc3)c3c2C(=O)NC3)cc1` [Example 417, 4-Methyl-N-(3-oxo-7-(phenylamino)isoindolin-4-yl)benzamide]: 0.5 µM.
The same measure, in the same setting: next, `O=C(Nc1ccc(Nc2cccc(Cl)c2)c2c1C(=O)NC2)c1ccc(F)cc1` [Example 418, N-(7-((3-chlorophenyl)amino)-3-oxoisoindolin-4-yl)-4-fluorobenzamide]: 1.17 µM; `O=C(Nc1ccc(Nc2ccccc2Cl)c2c1C(=O)NC2)c1ccc(F)cc1` [Example 419, N-(7-((2-chlorophenyl)amino)-3-oxoisoindolin-4-yl)-4-fluorobenzamide]: 2.11 µM.
In the case of `O=C(Nc1ccc(Nc2ccccc2)c2c1C(=O)NC2)c1ccccc1F` [Example 420, 2-Fluoro-N-(3-oxo-7-(phenylamino)isoindolin-4-yl)benzamide], the IC50 was 0.79 µM.
Same read-out and setting: next, `O=C(Nc1ccc(Nc2ccccc2)c2c1C(=O)NC2)c1cccc(F)c1` [Example 421, 3-Fluoro-N-(3-oxo-7-(phenylamino)isoindolin-4-yl)benzamide]: 0.82 µM.
Take `COc1cccc(Nc2ccc(NC(=O)c3ccc(F)cc3)c3c2CNC3=O)c1OC` [Example 422, N-(7-((2,3-dimethoxyphenyl)amino)-3-oxoisoindolin-4-yl)-4-fluorobenzamide]: the IC50 turned out to be 1.18 µM.
Still for that read-out and setting: the same measure for `O=C(Nc1ccc(Nc2cc(C(F)(F)F)cc(C(F)(F)F)c2)c2c1C(=O)NC2)c1ccc(F)cc1` [Example 423, N-(7-((3,5-bis(trifluoromethyl)phenyl)amino)-3-oxoisoindolin-4-yl)-4-fluorobenzamide]: over 20 µM; for `Cc1cccc(Nc2ccc(NC(=O)c3ccc(F)cc3)c3c2CNC3=O)c1C` [Example 424, N-(7-((2,3-dimethylphenyl)amino)-3-oxoisoindolin-4-yl)-4-fluorobenzamide]: 1.35 µM.
The same measure, in the same setting: the same measure for `COc1ccccc1Nc1ccc(NC(=O)c2ccc(F)cc2)c2c1CNC2=O` [Example 425, 4-Fluoro-N-(7-((2-methoxyphenyl)amino)-3-oxoisoindolin-4-yl)benzamide]: 0.84 µM.
The same measure, in the same setting: next, `Cc1ccccc1Nc1ccc(NC(=O)c2ccc(F)cc2)c2c1CNC2=O` [Example 426, 4-Fluoro-N-(3-oxo-7-(o-tolylamino)isoindolin-4-yl)benzamide]: 1.26 µM; `O=C(Nc1ccc(Nc2cccnc2)c2c1C(=O)NC2)c1ccc(F)cc1` [Example 427, 4-Fluoro-N-(3-oxo-7-(pyridin-3-ylamino)isoindolin-4-yl) benzamide]: 0.62 µM.
Regarding `O=C(Nc1ccc(Nc2ccccn2)c2c1C(=O)NC2)c1ccc(F)cc1` [Example 428, 4-Fluoro-N-(3-oxo-7-(pyridin-2-ylamino)isoindolin-4-yl) benzamide], the “TNIK (μM)” value was “Insoluble”.
As to `O=C(Nc1ccc(Nc2cnccn2)c2c1C(=O)NC2)c1ccc(F)cc1` [Example 429, 4-Fluoro-N-(3-oxo-7-(pyrazin-2-ylamino)isoindolin-4-yl) benzamide], the IC50 turned out to be 0.53 µM.
Still for that read-out and setting: next, `Cn1cc(Nc2ccc(NC(=O)c3ccc(F)cc3)c3c2CNC3=O)cn1` [Example 430]: 6.47 µM.
Still for that read-out and setting: next, `COc1cccc(Nc2ccc(NC(=O)c3ccccc3)c3c2CNC3=O)c1` [Example 431, N-(7-((3-methoxyphenyl)amino)-3-oxoisoindolin-4-yl) benzamide]: 0.94 µM.
On the same count and under the same terms, the same measure for `COc1ccccc1C(=O)Nc1ccc(Nc2ccccc2)c2c1C(=O)NC2` [Example 432, 2-Methoxy-N-(3-oxo-7-(phenylamino)isoindolin-4-yl) benzamide]: 12.2 µM.
In the case of `COc1ccc(C(=O)Nc2ccc(Nc3ccccc3)c3c2C(=O)NC3)cc1` [Example 433, 4-Methoxy-N-(3-oxo-7-(phenylamino)isoindolin-4-yl) benzamide], the IC50 turned out to be 0.4 µM.
In the case of `COc1cccc(C(=O)Nc2ccc(Nc3ccccc3)c3c2C(=O)NC3)c1` [Example 434, 3-Methoxy-N-(3-oxo-7-(phenylamino)isoindolin-4-yl) benzamide], the IC50 turned out to be 0.67 µM.
Same read-out and setting: next, `CC(=O)Nc1ccc(C(=O)Nc2ccc(Nc3ccccc3)c3c2C(=O)NC3)cc1` [Example 435, 4-Acetamido-N-(3-oxo-7-(phenylamino)isoindolin-4-yl) benzamide]: 0.21 µM; `Cc1cccc(Nc2ccc(NC(=O)c3ccccc3)c3c2CNC3=O)c1` [Example 436, N-(3-oxo-7-(m-tolylamino)isoindolin-4-yl)benzamide]: 0.59 µM; `O=C(Nc1ccc(Nc2cc[nH]n2)c2c1C(=O)NC2)c1ccc(F)cc1` [Example 437]: 2.9 µM.
For `O=C(Nc1ccc(Nc2ccccc2)c2c1C(=O)NC2)c1ccc(NCCN2CCCC2)cc1` [Example 438, N-(3-oxo-7-(phenylamino)isoindolin-4-yl)-4-((2-(pyrrolidin-1-yl)ethyl)amino)benzamide], the IC50 turned out to be 0.16 µM.
The same measure, in the same setting: the same measure for `O=C(Nc1ccc(Nc2ccccc2)c2c1C(=O)NC2)c1ccc(NCCN2CCCCC2)cc1` [Example 439, N-(3-oxo-7-(phenylamino)isoindolin-4-yl)-4-((2-(piperidin-1-yl)ethyl)amino)benzamide]: 0.15 µM.
On the same count and under the same terms, the same measure for `CN(C)CCNc1ccc(C(=O)Nc2ccc(Nc3ccccc3)c3c2C(=O)NC3)cc1` [Example 441]: 0.24 µM; for `O=C(Nc1ccc(Nc2ccccc2)c2c1C(=O)NC2)c1ccc(NCCN2CCOCC2)cc1` [Example 442, 4-((2-Morpholinoethyl)amino)-N-(3-oxo-7-(phenylamino)isoindolin-4-yl)benzamide]: 0.15 µM; for `CN1CCN(CCNc2ccc(C(=O)Nc3ccc(Nc4ccccc4)c4c3C(=O)NC4)cc2)CC1` [Example 443, 4-((2-(4-Methylpiperazin-1-yl)ethyl)amino)-N-(3-oxo-7-(phenylamino)isoindolin-4-yl)benzamide]: 0.12 µM.
In the case of `COCCNc1ccc(C(=O)Nc2ccc(Nc3ccccc3)c3c2C(=O)NC3)cc1` [Example 444, 4-((2-Methoxyethyl)amino)-N-(3-oxo-7-(phenylamino)isoindolin-4-yl)benzamide], the IC50 was found to be 0.11 µM.
On the same count and under the same terms, the same measure for `COc1cccc(Nc2ccc(NC(=O)c3ccc(NCCN4CCCC4)cc3)c3c2CNC3=O)c1` [Example 445, N-(7-((3-methoxyphenyl)amino)-3-oxoisoindolin-4-yl)-4-((2-(pyrrolidin-1-yl)ethyl)amino)benzamide]: 0.55 µM; for `COc1cccc(Nc2ccc(NC(=O)c3ccc(NCCN4CCCCC4)cc3)c3c2CNC3=O)c1` [Example 446, N-(7-((3-methoxyphenyl)amino)-3-oxoisoindolin-4-yl)-4-((2-(piperidin-1-yl)ethyl)amino)benzamide]: 0.63 µM; for `COc1cccc(Nc2ccc(NC(=O)c3ccc(NCCCN4CCCC4)cc3)c3c2CNC3=O)c1` [Example 447, N-(7-((3-methoxyphenyl)amino)-3-oxoisoindolin-4-yl)-4-((3-(pyrrolidin-1-yl)propyl)amino)benzamide]: 0.55 µM.
Regarding `COc1cccc(Nc2ccc(NC(=O)c3ccc(NCCCN4CCCCC4)cc3)c3c2CNC3=O)c1` [Example 448], the IC50 came out at 0.62 µM.
On the same count and under the same terms, the same measure for `Cc1cccc(Nc2ccc(NC(=O)c3ccc(NCCN4CCCC4)cc3)c3c2CNC3=O)c1` [Example 449, N-(3-oxo-7-(m-tolylamino)isoindolin-4-yl)-4-((2-(pyrrolidin-1-yl)ethyl)amino)benzamide]: 0.59 µM; for `Cc1cccc(Nc2ccc(NC(=O)c3ccc(NCCN4CCCCC4)cc3)c3c2CNC3=O)c1` [Example 450, N-(3-oxo-7-(m-tolylamino)isoindolin-4-yl)-4-((2-(piperidin-1-yl)ethyl)amino)benzamide]: 0.58 µM.
